Test results reported in ChEMBL document CHEMBL4665648, “Potent and selective inhibitors of receptor-interacting protein kinase 1 that lack an aromatic back pocket group” (Bioorg Med Chem Lett, 2019).

Key:
[1] = biological target: Serine/threonine-protein kinase PLK2 (Homo sapiens) (UniProt Q9NYY3); assay: Inhibition of recombinant human GST-tagged full length PLK2 expressed in baculovirus expression system using Ser/Thr 16 as substrate at 10 uM incubated for 60 mins by Z'-lyte assay relative to control
[2] = biological target: Mitogen-activated protein kinase kinase kinase 10 (Homo sapiens) (UniProt Q02779); assay: Inhibition of tracer 236 binding to recombinant human GST-tagged full length MLK2 expressed in baculovirus expression system at 10 uM incubated for 60 mins by Lanthascreen assay relative to control
[3] = biological target: G protein-coupled receptor kinase 5 (Homo sapiens) (UniProt P34947); assay: Inhibition of recombinant human GST-tagged full length GRK5 expressed in baculovirus expression system using Ser/Thr 16 as substrate at 10 uM incubated for 60 mins by Z'-Lyte assay relative to control
[4] = biological target: MAP/microtubule affinity-regulating kinase 3 (Homo sapiens) (UniProt P27448); assay: Inhibition of recombinant human GST-tagged full length MARK3 expressed in baculovirus expression system using Ser/Thr 25 as substrate at 10 uM incubated for 60 mins by Z'-lyte assay relative to control
MAP/microtubule affinity-regulating kinase 3 (Homo sapiens), sequence (P27448 whole entry, looked up, the tested form may be a part): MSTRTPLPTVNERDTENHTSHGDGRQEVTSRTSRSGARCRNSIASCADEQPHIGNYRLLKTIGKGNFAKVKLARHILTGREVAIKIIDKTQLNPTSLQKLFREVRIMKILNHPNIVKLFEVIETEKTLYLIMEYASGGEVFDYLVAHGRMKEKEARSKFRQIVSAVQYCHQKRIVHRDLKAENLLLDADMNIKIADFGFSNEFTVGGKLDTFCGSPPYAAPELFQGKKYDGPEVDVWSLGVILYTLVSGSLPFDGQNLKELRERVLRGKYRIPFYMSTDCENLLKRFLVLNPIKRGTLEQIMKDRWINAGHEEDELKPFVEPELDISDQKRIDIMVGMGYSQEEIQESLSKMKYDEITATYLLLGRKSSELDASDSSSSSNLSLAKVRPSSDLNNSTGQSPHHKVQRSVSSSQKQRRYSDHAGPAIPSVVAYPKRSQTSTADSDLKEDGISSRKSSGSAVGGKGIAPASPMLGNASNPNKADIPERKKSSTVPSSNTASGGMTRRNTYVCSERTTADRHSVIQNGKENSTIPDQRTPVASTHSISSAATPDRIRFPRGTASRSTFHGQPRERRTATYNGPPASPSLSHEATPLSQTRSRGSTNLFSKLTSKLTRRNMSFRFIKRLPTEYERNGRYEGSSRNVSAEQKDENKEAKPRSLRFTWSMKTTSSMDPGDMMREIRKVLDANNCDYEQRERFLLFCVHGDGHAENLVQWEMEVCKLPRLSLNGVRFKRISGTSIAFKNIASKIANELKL

[5] = biological target: Ephrin type-A receptor 7 (Homo sapiens) (UniProt Q15375); assay: Inhibition of tracer 236 binding to recombinant human GST-tagged EPHA7 (579 to 998 residues) expressed in baculovirus expression system at 10 uM incubated for 60 mins by Lanthascreen assay relative to control
[6] = biological target: Mitogen-activated protein kinase kinase kinase kinase 5 (Homo sapiens) (UniProt Q9Y4K4); assay: Inhibition of recombinant human GST-tagged full length KHS1 expressed in baculovirus expression system using Ser/Thr 07 as substrate at 10 uM incubated for 60 mins by Z'-lyte assay relative to control
Mitogen-activated protein kinase kinase kinase kinase 5 (Homo sapiens), sequence (Q9Y4K4 whole entry, looked up, the tested form may be a part): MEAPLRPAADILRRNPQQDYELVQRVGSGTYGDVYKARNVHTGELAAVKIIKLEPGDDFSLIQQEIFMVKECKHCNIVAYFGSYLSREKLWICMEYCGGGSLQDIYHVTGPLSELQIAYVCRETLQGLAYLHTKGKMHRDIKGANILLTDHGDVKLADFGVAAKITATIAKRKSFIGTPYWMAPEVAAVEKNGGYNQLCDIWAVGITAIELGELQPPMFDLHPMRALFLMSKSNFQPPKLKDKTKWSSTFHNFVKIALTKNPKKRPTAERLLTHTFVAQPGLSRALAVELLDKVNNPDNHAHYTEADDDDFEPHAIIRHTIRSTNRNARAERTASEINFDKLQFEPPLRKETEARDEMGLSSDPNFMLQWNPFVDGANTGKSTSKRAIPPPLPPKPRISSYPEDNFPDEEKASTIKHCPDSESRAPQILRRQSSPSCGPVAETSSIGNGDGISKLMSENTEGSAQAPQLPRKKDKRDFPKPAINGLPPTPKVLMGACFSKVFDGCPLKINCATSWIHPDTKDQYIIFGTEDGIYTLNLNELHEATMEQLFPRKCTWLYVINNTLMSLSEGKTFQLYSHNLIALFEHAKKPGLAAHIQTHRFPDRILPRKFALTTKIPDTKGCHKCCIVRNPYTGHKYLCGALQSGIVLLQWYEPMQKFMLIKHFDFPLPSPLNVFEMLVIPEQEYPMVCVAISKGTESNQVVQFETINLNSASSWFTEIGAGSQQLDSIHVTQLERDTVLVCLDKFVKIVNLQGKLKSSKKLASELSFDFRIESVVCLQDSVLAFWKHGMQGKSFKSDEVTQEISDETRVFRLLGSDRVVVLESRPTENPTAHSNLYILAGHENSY

[7] = biological target: Rho-associated protein kinase 2 (Homo sapiens) (UniProt O75116); assay: Inhibition of recombinant human N-terminal GST-tagged ROCK2 (1 to 552 residues) expressed in baculovirus expression system using Ser/Thr 13 as substrate at 10 uM incubated for 60 mins by Z'-Lyte assay relative to control
[8] = biological target: Ephrin type-A receptor 8 (Homo sapiens) (UniProt P29322); assay: Inhibition of recombinant human GST-tagged EPHA8 (565 to 1005 residues) expressed in baculovirus expression system using Tyr 02 as substrate at 10 uM incubated for 60 mins by Z'-Lyte assay relative to control
[9] = biological target: Casein kinase I isoform epsilon (Homo sapiens) (UniProt P49674); assay: Inhibition of recombinant human His-tagged full length CK1epsilon expressed in baculovirus expression system using Ser/Thr 11 as substrate at 10 uM incubated for 60 mins by Z'-Lyte assay relative to control
Casein kinase I isoform epsilon (Homo sapiens), sequence (P49674 whole entry, looked up, canonical isoform): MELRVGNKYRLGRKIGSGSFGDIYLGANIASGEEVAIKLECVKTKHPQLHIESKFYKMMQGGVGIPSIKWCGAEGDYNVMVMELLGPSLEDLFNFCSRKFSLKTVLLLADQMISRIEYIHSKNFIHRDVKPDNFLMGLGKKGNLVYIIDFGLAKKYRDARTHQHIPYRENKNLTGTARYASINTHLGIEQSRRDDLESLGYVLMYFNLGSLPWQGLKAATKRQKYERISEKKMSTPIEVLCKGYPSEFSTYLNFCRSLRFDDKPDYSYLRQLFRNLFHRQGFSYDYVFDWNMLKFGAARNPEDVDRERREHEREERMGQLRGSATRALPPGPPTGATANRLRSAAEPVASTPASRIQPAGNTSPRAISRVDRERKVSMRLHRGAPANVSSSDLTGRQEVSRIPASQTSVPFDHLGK

[10] = biological target: MAP kinase-interacting serine/threonine-protein kinase 1 (Homo sapiens) (UniProt Q9BUB5); assay: Inhibition of recombinant human GST-tagged full length MKNK1 expressed in insect expression system using Ser/Thr 07 as substrate at 10 uM incubated for 60 mins by Z'-lyte assay relative to control
MAP kinase-interacting serine/threonine-protein kinase 1 (Homo sapiens), sequence (Q9BUB5 whole entry, looked up): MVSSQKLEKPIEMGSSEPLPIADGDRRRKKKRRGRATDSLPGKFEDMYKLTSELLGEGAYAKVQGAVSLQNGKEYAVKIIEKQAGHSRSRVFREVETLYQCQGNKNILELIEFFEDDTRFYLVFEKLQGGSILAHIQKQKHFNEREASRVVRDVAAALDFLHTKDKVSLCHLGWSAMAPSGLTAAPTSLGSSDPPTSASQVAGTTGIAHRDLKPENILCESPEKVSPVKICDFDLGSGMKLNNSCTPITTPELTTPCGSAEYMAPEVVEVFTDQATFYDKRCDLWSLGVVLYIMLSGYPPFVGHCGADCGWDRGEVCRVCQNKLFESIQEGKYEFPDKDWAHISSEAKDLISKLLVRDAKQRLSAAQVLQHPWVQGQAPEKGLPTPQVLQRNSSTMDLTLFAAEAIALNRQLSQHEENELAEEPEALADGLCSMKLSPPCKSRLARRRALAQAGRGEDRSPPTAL

[11] = biological target: Tyrosine-protein kinase ABL1 (Homo sapiens) (UniProt P00519); assay: Inhibition of recombinant human His-tagged full length Abl expressed in baculovirus expression system using Tyr 02 as substrate at 10 uM incubated for 60 mins by Z'-Lyte assay relative to control
[12] = biological target: Tyrosine-protein kinase Yes (Homo sapiens) (UniProt P07947); assay: Inhibition of recombinant human GST-tagged full length YES expressed in baculovirus expression system using Tyr 02 as substrate at 10 uM incubated for 60 mins by Z'-Lyte assay relative to control
[13] = biological target: Serine/threonine-protein kinase Sgk1 (Homo sapiens) (UniProt O00141); assay: Inhibition of recombinant human GST-tagged full length SGK1 (60 to 431 residues) expressed in baculovirus expression system using Ser/Thr 06 as substrate at 10 uM incubated for 60 mins by Z'-Lyte assay relative to control
Serine/threonine-protein kinase Sgk1 (Homo sapiens), sequence (O00141 whole entry, the tested form may be a part): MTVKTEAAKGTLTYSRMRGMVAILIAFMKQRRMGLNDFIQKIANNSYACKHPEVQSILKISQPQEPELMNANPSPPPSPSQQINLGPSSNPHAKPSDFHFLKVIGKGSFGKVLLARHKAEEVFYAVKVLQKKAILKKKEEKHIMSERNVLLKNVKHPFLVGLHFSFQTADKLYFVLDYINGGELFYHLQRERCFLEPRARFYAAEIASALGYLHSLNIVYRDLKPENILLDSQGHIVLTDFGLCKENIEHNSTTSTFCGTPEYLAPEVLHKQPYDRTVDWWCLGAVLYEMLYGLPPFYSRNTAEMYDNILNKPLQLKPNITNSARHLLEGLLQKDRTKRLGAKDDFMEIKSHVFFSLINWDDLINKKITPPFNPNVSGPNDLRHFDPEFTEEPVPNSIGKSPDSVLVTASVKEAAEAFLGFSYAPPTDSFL

[14] = biological target: CDK8/Cyclin C (Homo sapiens) (UniProt P49336+P24863); assay: Inhibition of tracer 236 binding to recombinant human His-tagged full length CDK8/Cyclin C expressed in baculovirus expression system at 10 uM incubated for 60 mins by Lanthascreen assay relative to control
[15] = biological target: Serine/threonine-protein kinase Nek6 (Homo sapiens) (UniProt Q9HC98); assay: Inhibition of recombinant human GST-tagged full length NEK6 expressed in insect expression system using Ser/Thr 22 as substrate at 10 uM incubated for 60 mins by Z'-lyte assay relative to control
Serine/threonine-protein kinase Nek6 (Homo sapiens), sequence (Q9HC98 whole entry, the tested form may be a part): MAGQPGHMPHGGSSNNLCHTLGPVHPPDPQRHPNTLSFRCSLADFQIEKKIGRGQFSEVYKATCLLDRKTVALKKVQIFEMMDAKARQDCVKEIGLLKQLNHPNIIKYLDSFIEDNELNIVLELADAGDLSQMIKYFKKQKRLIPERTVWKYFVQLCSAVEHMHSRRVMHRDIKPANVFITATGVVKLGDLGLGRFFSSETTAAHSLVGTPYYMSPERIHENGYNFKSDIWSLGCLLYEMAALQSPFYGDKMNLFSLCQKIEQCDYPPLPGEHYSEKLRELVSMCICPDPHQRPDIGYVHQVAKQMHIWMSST

[16] = biological target: Ephrin type-B receptor 1 (Homo sapiens) (UniProt P54762); assay: Inhibition of recombinant human GST-tagged EPHB1 (613 to 881 residues) expressed in baculovirus expression system using Tyr 02 as substrate at 10 uM incubated for 60 mins by Z'-Lyte assay relative to control
Ephrin type-B receptor 1 (Homo sapiens), sequence (P54762 whole entry, the tested form may be a part): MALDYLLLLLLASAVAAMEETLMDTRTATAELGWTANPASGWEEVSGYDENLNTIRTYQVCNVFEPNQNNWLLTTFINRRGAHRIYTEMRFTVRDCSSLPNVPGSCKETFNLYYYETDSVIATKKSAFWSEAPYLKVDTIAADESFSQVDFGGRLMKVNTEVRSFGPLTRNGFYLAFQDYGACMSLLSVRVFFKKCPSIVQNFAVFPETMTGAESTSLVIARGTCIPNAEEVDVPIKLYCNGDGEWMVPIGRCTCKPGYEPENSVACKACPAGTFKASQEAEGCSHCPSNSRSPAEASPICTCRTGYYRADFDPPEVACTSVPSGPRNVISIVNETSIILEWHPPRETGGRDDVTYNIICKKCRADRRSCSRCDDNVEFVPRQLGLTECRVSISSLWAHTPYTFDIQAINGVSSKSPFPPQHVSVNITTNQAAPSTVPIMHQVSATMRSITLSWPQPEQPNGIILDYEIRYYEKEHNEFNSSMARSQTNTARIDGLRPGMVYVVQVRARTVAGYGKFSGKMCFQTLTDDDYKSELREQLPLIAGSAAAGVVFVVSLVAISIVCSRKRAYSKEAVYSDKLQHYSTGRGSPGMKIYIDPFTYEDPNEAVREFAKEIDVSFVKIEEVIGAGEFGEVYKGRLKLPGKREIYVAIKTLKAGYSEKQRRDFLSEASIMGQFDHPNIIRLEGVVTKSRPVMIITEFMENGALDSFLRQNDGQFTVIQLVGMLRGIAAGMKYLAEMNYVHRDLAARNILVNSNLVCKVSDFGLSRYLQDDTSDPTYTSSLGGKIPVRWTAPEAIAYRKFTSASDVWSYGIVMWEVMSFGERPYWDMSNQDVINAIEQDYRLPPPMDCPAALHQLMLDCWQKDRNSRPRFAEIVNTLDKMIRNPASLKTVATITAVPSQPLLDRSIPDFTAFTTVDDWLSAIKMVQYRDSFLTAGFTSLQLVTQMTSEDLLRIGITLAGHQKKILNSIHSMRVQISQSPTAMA

[17] = biological target: Megakaryocyte-associated tyrosine-protein kinase (Homo sapiens) (UniProt P42679); assay: Inhibition of recombinant human His-tagged full length Hyl expressed in Escherichia coli expression system using Tyr 01 as substrate at 10 uM incubated for 60 mins by Z'-Lyte assay relative to control
[18] = biological target: Cytoplasmic tyrosine-protein kinase BMX (Homo sapiens) (UniProt P51813); assay: Inhibition of recombinant human His-tagged full length BMX expressed in baculovirus expression system using Tyr 01 as substrate at 10 uM incubated for 60 mins by Z'-Lyte assay relative to control
[19] = biological target: Glycogen synthase kinase-3 alpha (Homo sapiens) (UniProt P49840); assay: Inhibition of recombinant human GST-tagged full length GSK3alpha expressed in baculovirus expression system using Ser/Thr 09 as substrate at 10 uM incubated for 60 mins by Z'-Lyte assay relative to control
[20] = biological target: Receptor-type tyrosine-protein kinase FLT3 (Homo sapiens) (UniProt P36888); assay: Inhibition of recombinant human His-tagged FLT3 (564 to 958 residues) expressed in baculovirus expression system using Tyr 02 as substrate at 10 uM incubated for 60 mins by Z'-Lyte assay relative to control
[21] = biological target: Protein kinase C alpha type (Homo sapiens) (UniProt P17252); assay: Inhibition of recombinant human His-tagged full length PKCalpha expressed in Escherichia coli expression system using Ser/Thr 07 as substrate at 10 uM incubated for 60 mins by Z'-lyte assay relative to control
[22] = biological target: Eukaryotic elongation factor 2 kinase (Homo sapiens) (UniProt O00418); assay: Inhibition of recombinant human GST-tagged full length EEF2K expressed in Escherichia coli expression system using Ser/Thr 24 as substrate at 10 uM incubated for 60 mins by Z'-Lyte assay relative to control
[23] = biological target: Serine/threonine-protein kinase MARK1 (Homo sapiens) (UniProt Q9P0L2); assay: Inhibition of recombinant human GST-tagged full length MARK1 expressed in baculovirus expression system using Ser/Thr 21 as substrate at 10 uM incubated for 60 mins by Z'-lyte assay relative to control
[24] = biological target: TGF-beta receptor type-1 (Homo sapiens) (UniProt P36897); assay: Inhibition of tracer 178 binding to recombinant human N-terminal GST-tagged TGFBR1 (200 to 503 residues) expressed in baculovirus expression system at 10 uM incubated for 60 mins by Lanthascreen assay relative to control
TGF-beta receptor type-1 (Homo sapiens), sequence (P36897 whole entry, the tested form may be a part): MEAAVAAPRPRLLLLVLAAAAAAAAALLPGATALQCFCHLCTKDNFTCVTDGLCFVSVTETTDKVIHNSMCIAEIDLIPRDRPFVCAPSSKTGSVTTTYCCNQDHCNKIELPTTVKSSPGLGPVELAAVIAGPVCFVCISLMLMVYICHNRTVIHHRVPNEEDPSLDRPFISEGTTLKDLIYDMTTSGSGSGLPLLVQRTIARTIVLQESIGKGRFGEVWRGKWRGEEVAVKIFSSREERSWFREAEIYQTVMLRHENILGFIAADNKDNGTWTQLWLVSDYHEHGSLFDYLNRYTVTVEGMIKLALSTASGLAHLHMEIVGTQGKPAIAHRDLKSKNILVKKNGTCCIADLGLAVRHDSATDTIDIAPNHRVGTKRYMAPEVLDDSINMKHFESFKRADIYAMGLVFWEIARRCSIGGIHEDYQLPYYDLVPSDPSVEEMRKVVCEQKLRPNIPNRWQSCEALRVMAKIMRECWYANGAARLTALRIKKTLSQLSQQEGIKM

CN1C(=O)[C@@H](NC(=O)c2n[nH]c3ncc(C(F)(F)C(F)(F)F)cc23)COc2ccccc21
inhibition [1]: -1% | inhibition [2]: 13.5% | inhibition [3]: 7.5% | inhibition [4]: -3.5% | inhibition [5]: 4.5% | inhibition [6]: -0.5% | inhibition [7]: -3% | inhibition [8]: 0% | inhibition [9]: 5% | inhibition [10]: 7% | inhibition [11]: 5% | inhibition [12]: 2.5% | inhibition [13]: 3% | inhibition [14]: 14% | inhibition [15]: 4% | inhibition [16]: 2% | inhibition [17]: 3.5% | inhibition [18]: 1.5% | inhibition [19]: 9% | inhibition [20]: 8.5% | inhibition [21]: -9.5% | inhibition [22]: 6% | inhibition [23]: -5.5% | inhibition [24]: -4.5%
